Test results from PubChem BioAssay (NCI).
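A five-concentration, 48-hour dose response in 96-well plates underlies each endpoint, interpolated linearly between surrounding concentrations. Definition used: TGI = concentration required for complete inhibition of growth.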

Assays:
Experiment in all cases: NCI tumour cell line growth inhibition, 48 h
HL-60(TB) leukemia = tested on: HL-60(TB) leukemia
SK-MEL-2 melanoma = tested on: SK-MEL-2 melanoma
MALME-3M melanoma = tested on: MALME-3M melanoma
HOP-18 NSCLC = tested on: HOP-18 NSCLC
KM20L2 colon = tested on: KM20L2 colon
TK-10 renal = tested on: TK-10 renal
SNB-19 CNS = tested on: SNB-19 CNS
SF-295 CNS = tested on: SF-295 CNS
RXF 393 renal = tested on: RXF 393 renal
HCC-2998 colon = tested on: HCC-2998 colon
OVCAR-8 ovarian = tested on: OVCAR-8 ovarian
UACC-257 melanoma = tested on: UACC-257 melanoma
DMS 114 small cell lung = tested on: DMS 114 small cell lung
HOP-62 NSCLC = tested on: HOP-62 NSCLC
ACHN renal = tested on: ACHN renal
SNB-78 CNS = tested on: SNB-78 CNS
A549 NSCLC = tested on: A549 NSCLC
SW-620 colon = tested on: SW-620 colon
MOLT-4 leukemia = tested on: MOLT-4 leukemia
NCI-H460 lung = tested on: NCI-H460 lung
HCT-15 colon = tested on: HCT-15 colon
SF-539 CNS = tested on: SF-539 CNS
K-562 leukemia = tested on: K-562 leukemia
U251 CNS = tested on: U251 CNS
LOX IMVI melanoma = tested on: LOX IMVI melanoma
COLO 205 colon = tested on: COLO 205 colon
M14 melanoma = tested on: M14 melanoma
RPMI-8226 leukemia = tested on: RPMI-8226 leukemia
DLD-1 colon = tested on: DLD-1 colon
SNB-75 CNS = tested on: SNB-75 CNS
CCRF-CEM leukemia = tested on: CCRF-CEM leukemia
LXFL 529 NSCLC = tested on: LXFL 529 NSCLC
SK-OV-3 ovarian = tested on: SK-OV-3 ovarian
786-0 renal = tested on: 786-0 renal
HT29 colon = tested on: HT29 colon
HCT-116 colon = tested on: HCT-116 colon
SK-MEL-28 melanoma = tested on: SK-MEL-28 melanoma
DMS 273 small cell lung = tested on: DMS 273 small cell lung
EKVX NSCLC = tested on: EKVX NSCLC
KM12 colon = tested on: KM12 colon
UACC-62 melanoma = tested on: UACC-62 melanoma
XF 498 CNS = tested on: XF 498 CNS
SR leukemia = tested on: SR leukemia
CAKI-1 renal = tested on: CAKI-1 renal
IGROV1 ovarian = tested on: IGROV1 ovarian
UO-31 renal = tested on: UO-31 renal
SF-268 CNS = tested on: SF-268 CNS
M19-MEL melanoma = tested on: M19-MEL melanoma
NCI-H522 lung = tested on: NCI-H522 lung
SK-MEL-5 melanoma = tested on: SK-MEL-5 melanoma
SN12C renal = tested on: SN12C renal
NCI-H23 lung = tested on: NCI-H23 lung
OVCAR-3 ovarian = tested on: OVCAR-3 ovarian
NCI-H226 lung = tested on: NCI-H226 lung
RXF-631 renal = tested on: RXF-631 renal
OVCAR-4 ovarian = tested on: OVCAR-4 ovarian
HOP-92 NSCLC = tested on: HOP-92 NSCLC
OVCAR-5 ovarian = tested on: OVCAR-5 ovarian
A498 renal = tested on: A498 renal

For `CC1CCC2CC(=O)OC([C@@H]3C(=O)O[C@@H](C4=CCCC4)C4C(C)CCC43)C12` (some centres not stated), the TGI (HL-60(TB) leukemia) was 65.1 µM, the TGI (SK-MEL-2 melanoma) was greater than 100 µM and the TGI (MALME-3M melanoma) was greater than 100 µM. For the same compound, the TGI (HOP-18 NSCLC) was greater than 100 µM, the TGI (KM20L2 colon) was greater than 100 µM and the TGI (TK-10 renal) was greater than 100 µM. It also gave a TGI (SNB-19 CNS) greater than 100 µM, a TGI (SF-295 CNS) greater than 100 µM and a TGI (RXF 393 renal) greater than 100 µM. It also gave a TGI (HCC-2998 colon) greater than 100 µM, a TGI (OVCAR-8 ovarian) greater than 100 µM and a TGI (UACC-257 melanoma) greater than 100 µM. It also gave a TGI (DMS 114 small cell lung) greater than 100 µM, a TGI (HOP-62 NSCLC) greater than 100 µM and a TGI (ACHN renal) greater than 100 µM. The TGI (SNB-78 CNS) was greater than 100 µM, the TGI (A549 NSCLC) was greater than 100 µM and the TGI (SW-620 colon) was greater than 100 µM. The TGI (MOLT-4 leukemia) was greater than 100 µM, the TGI (NCI-H460 lung) was greater than 100 µM and the TGI (HCT-15 colon) was greater than 100 µM. The TGI (SF-539 CNS) was greater than 100 µM, the TGI (K-562 leukemia) was greater than 100 µM and the TGI (U251 CNS) was greater than 100 µM. It also gave a TGI (LOX IMVI melanoma) greater than 100 µM, a TGI (COLO 205 colon) greater than 100 µM and a TGI (M14 melanoma) greater than 100 µM. The TGI (RPMI-8226 leukemia) was greater than 100 µM, the TGI (DLD-1 colon) was greater than 100 µM and the TGI (SNB-75 CNS) was greater than 100 µM. It also gave a TGI (CCRF-CEM leukemia) greater than 100 µM, a TGI (LXFL 529 NSCLC) greater than 100 µM and a TGI (SK-OV-3 ovarian) greater than 100 µM. The TGI (786-0 renal) was greater than 100 µM, the TGI (HT29 colon) was greater than 100 µM and the TGI (HCT-116 colon) was greater than 100 µM. The TGI (SK-MEL-28 melanoma) was greater than 100 µM, the TGI (DMS 273 small cell lung) was greater than 100 µM and the TGI (EKVX NSCLC) was greater than 100 µM. It also gave a TGI (KM12 colon) greater than 100 µM, a TGI (UACC-62 melanoma) greater than 100 µM and a TGI (XF 498 CNS) greater than 100 µM. It also gave a TGI (SR leukemia) greater than 100 µM, a TGI (CAKI-1 renal) greater than 100 µM and a TGI (IGROV1 ovarian) greater than 100 µM. It also gave a TGI (UO-31 renal) greater than 100 µM, a TGI (SF-268 CNS) greater than 100 µM and a TGI (M19-MEL melanoma) greater than 100 µM. For the same compound, the TGI (NCI-H522 lung) was greater than 100 µM, the TGI (SK-MEL-5 melanoma) was greater than 100 µM and the TGI (SN12C renal) was greater than 100 µM. The TGI (NCI-H23 lung) was greater than 100 µM, the TGI (OVCAR-3 ovarian) was greater than 100 µM and the TGI (NCI-H226 lung) was greater than 100 µM.

Compound `O=C1C2C3CC(C4C5C=CC(C5)C34)C2C2C3CC(C12)C1C2C=CC(C2)C31` (configuration not stated) has a TGI (HL-60(TB) leukemia) greater than 100 µM, a TGI (SK-MEL-2 melanoma) greater than 100 µM and a TGI (MALME-3M melanoma) greater than 100 µM. It also gave a TGI (HOP-18 NSCLC) greater than 100 µM, a TGI (KM20L2 colon) greater than 100 µM and a TGI (RXF-631 renal) greater than 100 µM. The TGI (TK-10 renal) was greater than 100 µM, the TGI (SNB-19 CNS) was greater than 100 µM and the TGI (SF-295 CNS) was greater than 100 µM. It also gave a TGI (RXF 393 renal) greater than 100 µM, a TGI (HCC-2998 colon) greater than 100 µM and a TGI (OVCAR-8 ovarian) greater than 100 µM. For the same compound, the TGI (OVCAR-4 ovarian) was greater than 100 µM, the TGI (UACC-257 melanoma) was greater than 100 µM and the TGI (DMS 114 small cell lung) was greater than 100 µM. It also gave a TGI (HOP-62 NSCLC) greater than 100 µM, a TGI (ACHN renal) greater than 100 µM and a TGI (SNB-78 CNS) greater than 100 µM. It also gave a TGI (A549 NSCLC) greater than 100 µM, a TGI (SW-620 colon) of 49.5 µM and a TGI (MOLT-4 leukemia) greater than 100 µM. For the same compound, the TGI (NCI-H460 lung) was greater than 100 µM, the TGI (HCT-15 colon) was greater than 100 µM and the TGI (SF-539 CNS) was greater than 100 µM. It also gave a TGI (K-562 leukemia) greater than 100 µM, a TGI (U251 CNS) greater than 100 µM and a TGI (LOX IMVI melanoma) greater than 100 µM. For the same compound, the TGI (COLO 205 colon) was greater than 100 µM, the TGI (HOP-92 NSCLC) was greater than 100 µM and the TGI (M14 melanoma) was greater than 100 µM. The TGI (DLD-1 colon) was greater than 100 µM, the TGI (SNB-75 CNS) was greater than 100 µM and the TGI (OVCAR-5 ovarian) was greater than 100 µM. It also gave a TGI (CCRF-CEM leukemia) greater than 100 µM, a TGI (LXFL 529 NSCLC) greater than 100 µM and a TGI (SK-OV-3 ovarian) greater than 100 µM. The TGI (786-0 renal) was greater than 100 µM, the TGI (HT29 colon) was greater than 100 µM and the TGI (HCT-116 colon) was greater than 100 µM. For the same compound, the TGI (SK-MEL-28 melanoma) was greater than 100 µM, the TGI (DMS 273 small cell lung) was greater than 100 µM and the TGI (EKVX NSCLC) was greater than 100 µM. The TGI (KM12 colon) was greater than 100 µM, the TGI (UACC-62 melanoma) was greater than 100 µM and the TGI (A498 renal) was greater than 100 µM. For the same compound, the TGI (XF 498 CNS) was greater than 100 µM, the TGI (SR leukemia) was greater than 100 µM and the TGI (CAKI-1 renal) was greater than 100 µM. It also gave a TGI (IGROV1 ovarian) greater than 100 µM, a TGI (UO-31 renal) greater than 100 µM and a TGI (SF-268 CNS) greater than 100 µM. For the same compound, the TGI (M19-MEL melanoma) was greater than 100 µM, the TGI (NCI-H522 lung) was greater than 100 µM and the TGI (SK-MEL-5 melanoma) was greater than 100 µM. The TGI (SN12C renal) was greater than 100 µM, the TGI (NCI-H23 lung) was greater than 100 µM and the TGI (OVCAR-3 ovarian) was greater than 100 µM. For the same compound, the TGI (NCI-H226 lung) was greater than 100 µM.
